According to US20170339957A1, “AQUEOUS DISPERSIONS” (Rohm and Haas Company, priority 2011, published 2017):

Legend:
[1] = Protocol 1: dissolving BIT in basic solution (exotherm peak, pH, dissolution and inherent precipitation temperature); format: physicochemical
From the text: “Protocol 1” means the following: A mixture (herein “mixture 1”) was formed as follows: 151.18 g of BIT paste (concentration 83% to 85% BIT by weight based on the weight of the paste) was mixed with basic solution and with water. The amount of basic solution was chosen to have equivalent ratio of 1:1 with BIT, and the amount of water was chosen to make Mixture 1 have the desired concentration of BIT. In some cases, the process of mixing the ingredients of Mixture 1 is exothermic; in such cases, the peak temperature reached by the mixture was recorded as the “exotherm peak.” From that mixture, a sample of 100 g (herein the “test1 batch”) was used. If some or all of the BIT was not dissolved, the test1 batch was heated (up to a maximum of 61° C.), and if there was a temperature of 61° C. or below at which all the BIT was dissolved, that temperature was recorded as the “dissolution temperature.” If BIT is all dissolved at ambient temperature, the dissolution temperature is herein taken to be 23° C. Then, the inherent precipitation temperature was observed by cooling the test 1 batch to 0° C. or to a point at which BIT precipitated, whichever temperature is higher. Then, the test 1 batch was heated to a temperature (herein “T2”) at or above the dissolution temperature; while the solution was at temperature T2, thickener was added and acid solution was added.
In some of the Examples below, Protocol 1 was performed repeatedly, using various basic solutions and various concentrations of BIT. The purpose of these repeated performances of Protocol 1 was to answer the following question: “While using a specific basic solution and using temperatures between approximately 23° C. and approximately 60° C., when making aqueous mixture (I), what range of BIT concentration is possible?”

[2] = pH 7.5 or lower; cited from earlier work

## O=c1[nH]sc2ccccc12 [BIT, 1,2-Benzisothiazolin-3-one]
[1]; using ammonia
  BIT concentration range for making aqueous mixture (I): 5%
[1]; using diaminoethane
  BIT concentration range for making aqueous mixture (I): 5%
[1]; using mono-ethanolamine
  BIT concentration range for making aqueous mixture (I): 5%
[2]
  solubility in water: low solubility
